Test results as given in US10722484B2, “Methods of cancer treatment” (K-Gen, Inc., priority 2016, dated 2020).

Experiments:
H1915 = test: Proliferation assay (CellTiter Glo); assay type: cell-based; settings: H1915 (RAS WT); 96 hours
Experimental: (§1) The dose range for most compounds was 4.6 nM-30 μM. The dose ranges for some compounds were adjusted downward to 0.46 nM-3 μM or 0.08 nM-0.5 μM or 0.03 nM-0.2 μM. […] The results are shown in Tables 3-6 for pancreatic cancer, lung cancer, colon/gastric cancer, and leukemia.
(§2) Other cancer cell lines having wild-type K-RAS status and K-RAS mutation at G12 were also screened using the PKC activator compounds. […] K104 was tested in a range of 0.03 nM-0.2 μM. […] The dose ranges were adjusted downward to 0.46 nM-3 μM for K102 and 0.08 nM-0.5 μM for K103 for some cell lines. The results of the screening of cancer cells lines with wild-type K-RAS status and K-RAS mutations at the G12 positions are presented in Table 7.

H838 = test: Proliferation assay (CellTiter Glo); assay type: cell-based; settings: H838 (RAS WT); 96 hours
Experimental: as §1, §2

Colo205 = test: Proliferation assay (CellTiter Glo); assay type: cell-based; settings: Colo205 (RAS WT); 96 hours
Experimental: as §1, §2

HT29 = test: Proliferation assay (CellTiter Glo); assay type: cell-based; settings: HT29 (RAS WT); 96 hours
Experimental: as §1, §2

RPMI8226 = test: Proliferation assay (CellTiter Glo); assay type: cell-based; settings: RPM18226; 96 hours
Experimental: as §1, §2

SW900 = test: Proliferation assay (CellTiter Glo); assay type: cell-based; settings: SW900 (K-RAS: G12V); 96 hours
Experimental: as §1, §2

BxPC-3 = test: Proliferation assay (CellTiter Glo); assay type: cell-based; settings: BxPC-3 (RAS WT); 96 hours
Experimental: as §1, §2

[1] = system: Mino (Mantle cell lymphoma); test: Combination viability/proliferation assays; settings: Homo sapiens, MINO, read-out: inhibition on proliferation, alone
Experimental: Briefly, cells at density of 1,000-10,000 cells/well in 96-well plates or 200-1600 cells/well in 384-well plates were seeded and incubated at 37° C. for 24 hours before addition of compounds. A series of 9 different concentrations of compound stocks (500×) were prepared by 3-fold serial dilutions in DMSO. […] After 96 hours of incubation, 35 μL or 50 μL of CellTiter Glo reagent (Promega) was added to each well and luminescence was measured after 10 minutes using EnVision (PerkinElmer). Luminescence from cells treated with DMSO alone was set as Max and % of inhibition was calculated as follows: Inhibition %=(Max-Sample value)/Max*100. Data were analyzed using XLfit software (ID Business Solutions Ltd.) or GraphPad software and IC50, relative IC50, and % of top inhibition were calculated.
Various drugs or compounds (Table 10) were screened and assayed in 384-well plates as 9-point 3-fold dilution series alone and in combination with 2-3 doses of the specified PKC activator compounds (e.g., K101A, K101E, and K102). The top concentration for the tested PKC activator compound was set at roughly the IC50 when the same testing compound was used as a single agent assayed in the same cell line. The next dose was either 3-fold or 10-fold dilution from the top concentration.
The PKC activating agents (e.g., K101A, K101E, and K102) in combination with other chemotherapeutic agents, including standard chemotherapies and certain chemotherapeutic agents targeting certain cell signaling pathways, were also examined on cancer cells other than lung cancer cells.

A549 cells = test: Soft agar colony formation assay; assay type: cell-based; settings: for number of colonies formed in soft agar: 7-10 days, 9-point 3-fold dilution series
Experimental: To prepare a base agar layer (0.6%), melted 1.2% agar solution was mixed 1:1 (v/v) with 2×DMEM/20% FBS medium in a tube by inverting several times, and 50 μL of the mixture was immediately transferred to a well in a 96-well flat-bottom microplate. The plate was placed at 4° C. for 30 minutes to allow the base agar layer to solidify. Then, the cell agar layer (agar 0.4%) was prepared by transferring 75 μL of the cell and agar mixture containing 1:1:1 (v/v/v) of 1.2% agar solution, 2×DMEM/20% FBS and cell suspension (0.4-4×10E5/mL) to each well of the plates so that each well contained 1000-10000 cells per well. The plates were placed at 4° C. for 15 minutes and then 75 μL of media was added to each well. After incubating the plates overnight in a CO2 incubator, 50 μL of media with or without 5× final concentrations of compounds were added to each well. Each compound was tested in 9-point 3-fold dilution series. The plates were incubated for 7-10 days at 37° C. At the end of incubation period, 28 μL of Calcein AM solution (5 μM) was added to the center of each well. The plates were incubated at 37° C. for 45 minutes before scanning on Acumen (TTP Labtech). Each compound was tested in triplicates. Data was analyzed and compound EC50s were calculated using GraphPad Prism 5.

[2] = system: pancreatic, lung, colon and leukemia cancer cell lines; test: Proliferation assay, summary over the panel of cancer cell lines; assay type: cell-based; settings: comparison with prostratin
Experimental: PKC activator compounds were tested in a panel of K-RAS mutant pancreatic, lung, and colon cancer cell lines, as well as a number of leukemia cell lines having either mutant K-RAS or N-RAS.
as §1

[3] = system: A549 lung cancer cell line; test: Combination viability/proliferation assays (384-well IC50 ratio, 96-well MacSynergy II); assay type: cell-based; settings: PKC activator compounds (K101A, K101E, K102)

Row | SMILES | Top Inhibition % (H1915) [%] | Top Inhibition % (H838) [%] | Top Inhibition % (Colo205) [%] | Top Inhibition % (HT29) [%] | Top Inhibition % (RPMI8226) [%] | Top Inhibition % (SW900) [%] | Top Inhibition % (BxPC-3) [%] | inhibition at 0.1 µM [1] [%] | number of colonies formed in soft agar (A549 cells) | inhibition at 0.001 µM [1] [%] | potency in proliferation inhibition relative to prostratin [2] | effect in combination with the PKC activator compounds in inhibiting the growth of A549 cells [3] | rank of potency in soft agar assay (A549 cells; order K103, K102, K101A, K101E)
1 | CC(=O)O[C@@]12C[C@@H](C)[C@@]3(O)[C@@H](C=C(CO)C[C@]4(O)C(=O)C(C)=C[C@@H]34)[C@@H]1C2(C)C [Compound K101A, 12-deoxyphorbol 13-acetate] | 27.7 | 10.1 | 83.6 | 12.8 | 32.39 | 7.1 | 40.11 | < 10 | reduced the number of colonies formed by A549 cells in a dose-dependent manner |  |  |  | 
2 | CC(=O)OCC1=CC2C3C(C)(C)C3(OC(C)=O)CC(C)C2(O)C2C=C(C)C(=O)C2(O)C1 (stereo not drawn) [Compound K101E] | 35.6 | 26.8 | 85.8 | 31.7 | 32.25 | 25.4 | 38.87 |  | reduced the number of colonies formed by A549 cells in a dose-dependent manner |  |  |  | 
3 | C/C=C(/C)C(=O)O[C@H]1C(C)=C[C@]23C(=O)[C@@H](C=C(CO)[C@@H](O)[C@]12O)[C@H]1[C@@H](C[C@H]3C)C1(C)C [Compound K102, ingenol-3-angelate] | 30.8 | 25.5 | 86.0 | 17.3 | 27.06 | 20.1 | 44.13 |  | reduced the number of colonies formed by A549 cells in a dose-dependent manner | < 10 | more potent |  | 
4 | CC(=O)O[C@H]1C(=O)[C@@]2(C)[C@H]([C@H](OC(=O)c3ccccc3)[C@]3(O)C[C@H](OC(=O)[C@H](O)[C@@H](NC(=O)c4ccccc4)c4ccccc4)C(C)=C1C3(C)C)[C@]1(OC(C)=O)CO[C@@H]1C[C@@H]2O [Paclitaxel] | 80.6 | 96.5 | 97.4 | 93.8 | 98.98 | 81.0 | 91.93 |  |  |  |  | insignificant synergism or antagonism | 
5 | CCCCCCCCCCCCCC(=O)O[C@@H]1[C@@H](C)[C@@]2(O)[C@@H](C=C(CO)C[C@]3(O)C(=O)C(C)=C[C@@H]23)[C@@H]2C(C)(C)[C@]12OC(C)=O [Compound K103, 12-O-Tetradecanoylphorbol-13-acetate] | 27.9 | 15.5 | 86.8 | 20.9 | 32.75 | 18.7 | 44.46 |  | reduced the number of colonies formed by A549 cells in a dose-dependent manner |  | more potent |  | Most potent
